Results published in paper PMC12386351, “Monoterpene Indole Alkaloids with Antimicrobial Activity Against Helicobacter pylori” (International Journal of Molecular Sciences, 2025).
Values after ≈ are worked out from the molar mass of the structure shown. “Also recorded” adds a separate entry of the source. Like-named read-outs stand apart in the source and are kept apart here.

Assays:
[1] = system: H. pylori reference strain J99; test: MIC and MBC by microdilution against H. pylori reference strain J99; type: cell-based, Helicobacter pylori; settings: for MBC: (-) = MBC not determined, as bacterial growth was observed at all tested concentrations (up to 20 µM)
Procedure: To evaluate the activity of the natural products library, in vitro assays were conducted to determine the MIC and MBC against the H. pylori reference strain J99. […] The microplates were then incubated at 37 °C in microaerophilic conditions for 48 h with agitation of 140 rpm. After incubation, the optical density was read at 600 nm (BioTek Epoch2, Agilent, Winooski, VT, USA). All assays were performed in duplicate. DMSO at a concentration of 1% (v/v) was included as a negative control to assess the baseline effect of the solvent, in which bacterial growth was expected, while kanamycin (Sigma-Aldrich, St. Louis, MO, USA) at a concentration of 8 µg/mL was used as a positive control to provide a benchmark for effective antibacterial activity. MIC values were defined as the lowest concentration of a compound that inhibited the growth of H. pylori. MBC values were determined by plating 5 µL aliquots of each dilution onto H. pylori-selective medium, followed by incubation as described above. MBC was defined as the lowest concentration of a compound that rendered no visible colony formation on the solid medium, indicating bactericidal activity.

[2] = MTT cytotoxicity assay on VERO cells; type: cell-based; settings: African green monkey, MTT, 80 to 10 µM
Procedure: (§1) The cytotoxicity of the compounds showing antibacterial activity was evaluated in VERO cell cultures (FTVE, Vircell, S.L., Granada, Spain) using the standard MTT colorimetric assay. Briefly, sub confluent cell cultures were exposed for 48 h, to 2-fold dilutions of each assayed compound, ranging from 80 to 10 µM, in 100 μL CO2-independent medium supplemented with 5% FBS and […] gentamicin (Gibco^TM, Grand Island, NY, USA) (CO2-ind-FBS5). In each assay, cells exposed to equivalent concentrations of DMSO as solvent and untreated cells were kept as controls; untreated cells were considered the baseline for 100% viability.
(§2) After 48-h incubation at 37 °C, the culture medium was replaced by fresh CO2-ind-FBS5 medium supplemented with 0.5 mg/mL MTT (Thermo Fisher Scientific, Waltham, MA, USA). Upon a 3-h incubation at 37 °C, the medium was carefully discarded, and the purple formazan crystals formed were dissolved in DMSO (100 μL/well) during a 15-min incubation with agitation at room temperature, followed by absorbance reading at 570 nm, with reference wavelength at 630 nm (BioTek Epoch2, Agilent, Winooski, VT, USA). Data analysis and visualization were performed using Excel (v.2408) and RStudio (v. 2024.04.2). When possible, the half maximal cytotoxic concentration (CC50) values were determined for each compound by fitting a dose–response three- or four-parameter log-logistic function to the triplicate experimental points using RStudio (v.2024.04.2).
(§3) The selectivity index (SI) is the ratio of the cytotoxic concentration for 50% of the cells (CC50) to the inhibitory concentration for 50% of the bacteria (IC50). Considering that IC50 values were not calculated, but are expectably lower than the MIC value, the SI was estimated by dividing the CC50 by the MIC. Therefore, this value is necessarily lower than the SI because the MIC, rather than the bacterial half-maximal inhibitory concentration (IC50), was used in the calculation. This approach allows for an estimation of the therapeutic potential of the compound by providing an indication of its selectivity for targeting bacterial cells over host cells, even though the MIC is used instead of the bacterial IC50.
(§4) To compare biofilm formation between groups (negative control, H. pylori J99, and compound treatments), one-way analysis of variance (ANOVA) was performed, followed by Tukey’s post-hoc test for multiple comparisons. Data analysis was conducted using Python 3.13.5. Similarly, for the cytotoxicity assay in VERO cells, ANOVA and Tukey’s post-hoc test were also used to compare groups at each tested concentration (ranging from 80 to 10 µM), with DMSO-treated and untreated cells as reference groups.

VERO cells = test: MTT cytotoxicity assay on VERO cells; type: cell-based; settings: 48 h, 10 to 80 µM, versus DMSO and untreated controls
Procedure: as §1, §2, §3, §4

[3] = Helicobacter pylori, H. pylori J99, 48 h, 2-fold dilutions 20 to 0.625 µM
[4] = Helicobacter pylori, H. pylori J99, read-out: MBC
[5] = Helicobacter pylori, H. pylori J99, after conversion from µM to µg/mL

| Structure (SMILES) | MBC ([1]; H. pylori J99) | MIC [1, 3] | MBC [1, 4] | MIC [1, 5] | CC50 at 48 h [2] | Effect on cell viability (MTT) (VERO cells) |
| --- | --- | --- | --- | --- | --- | --- |
| CCC1CN(C)C2Cc3c([nH]c4ccccc34)C(=NN=CC=Cc3ccccc3)CC1C2C(=O)OC (centres unmarked) [Compound 3, Dregamine(phenylallylidene)hydrazone] | 20 (20) µM | 20 µM | 20 µM (≈ 9.65 µg/mL) | 9.65 µg/mL | 44.1 ± 2.4 µM |  |
| CCC1CN(C)C2Cc3c([nH]c4ccccc34)C(=NN=Cc3c[nH]c4ccccc34)CC1C2C(=O)OC (centres unmarked) [Compound 4, Dregamine(indolylmethylene)hydrazone] |  | 10 µM |  | 4.96 µg/mL | 47 ± 2.2 µM |  |
| CCC1CN(C)C2Cc3c([nH]c4ccccc34)C(=NN=Cc3ccccc3O)CC1C2C(=O)OC (centres unmarked) [Compound 5, Dregamine(2′-hydroxybenzylidene)hydrazone] |  | 20 µM |  | 9.45 µg/mL | 55.8 ± 4.5 µM |  |
| CCC1CN(C)C2Cc3c([nH]c4ccccc34)C(c3c(OC)ccc4c5c([nH]c34)C3(C(=O)OC)CC4CC(CC)C3N(CC5)C4CC(C)=O)CC1C2C(=O)OC (centres unmarked) [Compound 7, Tabernaelegantinine A] |  | 20 µM |  | 15.2 µg/mL | > 80 µM | only a slight decrease in cell viability; also recorded: significant effects only at 80 µM |
| CCC1CN(C)C2Cc3c([nH]c4ccccc34)C(=NN=Cc3c[nH]c4cc(Br)ccc34)CC1C2C(=O)OC (centres unmarked) [Compound 6, Dregamine(6′bromo-3′indolylmethylene)hydrazone] |  | 10 µM | 20 µM (≈ 11.5 µg/mL) | 5.75 µg/mL | > 80 µM | only a slight decrease in cell viability; also recorded: did not induce significant cytotoxicity at any tested concentration |
